Laboratory results: PubChem BioAssay AID220 (DTP/NCI, 2004)
“And” between values parts separate entries of the source, which are not always exact repeats. Equal entries are not always repeated. Records with an inconclusive call do not appear.

System: CD8F1 mice, subcutaneous mammary adenocarcinoma, T/C%
Test: NCI In Vivo Anticancer Drug Screen. Data for tumor model Mammary Adenocarcinoma CD8F1 (subcutaneous) in CD8F1
Settings: higher = larger tumour
Method in brief: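 Ratio of treated to vehicle-control outcome, based on either survival or tumor size, in mice bearing transplantable tumors given the test compound.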

[1] = endpoint: median tumor weight change, dose: 0.62 mg/kg/injection, schedule: Q01DX001 (ip), vehicle: saline + alcohol
[2] = endpoint: median tumor weight change, dose: 1.25 mg/kg/injection, schedule: Q01DX001 (ip), vehicle: saline + alcohol
[3] = endpoint: median tumor weight change, dose: 2.5 mg/kg/injection, schedule: Q01DX001 (ip), vehicle: saline + alcohol
[4] = endpoint: median tumor weight change, dose: 5.0 mg/kg/injection, schedule: Q01DX001 (ip), vehicle: saline + alcohol
[5] = endpoint: median tumor weight change, dose: 10.0 mg/kg/injection, schedule: Q01DX001 (ip), vehicle: saline + alcohol

`C/C=C\C1OC1(C)c1cc(=O)c2c(C)cc3c(c2o1)C(=O)c1c(O)c(C2CC(C)(N(C)C)C(OC(C)=O)C(C)O2)cc(C2CC(N(C)C)C(O)C(C)O2)c1C3=O` (centres undefined) was tested, and the T/C (endpoint: median tumor weight change, dose: 0.31 mg/kg/injection, schedule: Q01DX001 (ip), vehicle: saline + alcohol) was 69 % of control, the T/C [1] was 85 % of control and the T/C [2] was 70 % of control. The T/C [3] was 31 % of control, the T/C [4] was 34 % of control and the T/C [5] was 25 % of control.
With `O=C(O)CC(=O)O.[NH-]CC[NH-].[Pt+2]` the T/C (endpoint: median tumor weight (est.), dose: 14.06 mg/kg/injection, schedule: Q07DX005 (ip), vehicle: dextrose) was 14 % of control, the T/C (endpoint: median tumor weight (est.), dose: 28.13 mg/kg/injection, schedule: Q07DX005 (ip), vehicle: dextrose) was 25 % of control and the T/C (endpoint: median tumor weight (est.), dose: 56.25 mg/kg/injection, schedule: Q07DX005 (ip), vehicle: dextrose) was 14 % of control. The T/C (endpoint: median tumor weight (est.), dose: 112.5 mg/kg/injection, schedule: Q07DX005 (ip), vehicle: dextrose) was 13 % of control and the T/C (endpoint: median tumor weight (est.), dose: 225.0 mg/kg/injection, schedule: Q07DX005 (ip), vehicle: dextrose) was 3 % of control.
In the case of `CS(=O)(=O)OCCCCOS(C)(=O)=O`, the T/C (endpoint: median tumor weight (est.), dose: 12.5 mg/kg/injection, schedule: Q07DX005 (ip), vehicle: Klucel (hydroxypropylcellulose) (HPC)) is reported as 91 % of control and 95 % of control, the T/C (endpoint: median tumor weight (est.), dose: 25.0 mg/kg/injection, schedule: Q07DX005 (ip), vehicle: Klucel (hydroxypropylcellulose) (HPC)) is reported as 59 % of control and 70 % of control and the T/C (endpoint: median tumor weight (est.), dose: 200.0 mg/kg/injection, schedule: Q07DX005 (ip), vehicle: Klucel (hydroxypropylcellulose) (HPC)) is reported as 8 % of control.
In the case of `Cc1ccc2c(c1)N=C(Nc1ccccc1)N=S2(C)=O` (centres undefined), the T/C (endpoint: median tumor weight change, dose: 7.81 mg/kg/injection, schedule: Q01DX001 (ip), vehicle: saline with Tween-80) is reported as 115 % of control, the T/C (endpoint: median tumor weight change, dose: 15.62 mg/kg/injection, schedule: Q01DX001 (ip), vehicle: saline with Tween-80) is reported as 121 % of control and the T/C (endpoint: median tumor weight change, dose: 31.25 mg/kg/injection, schedule: Q01DX001 (ip), vehicle: saline with Tween-80) is reported as 67 % of control. For the same compound, the T/C (endpoint: median tumor weight change, dose: 125.0 mg/kg/injection, schedule: Q01DX001 (ip), vehicle: saline with Tween-80) was 93 % of control.
With `COC1/C=C/C=C(/C)Cc2cc(O)c(Cl)c(c2)N(C)C(=O)CC(OC(=O)C(C)C)C2(C)OC2C(C)C2CC1(O)NC(=O)O2` (centres undefined) the T/C [1] was 49 % of control, the T/C [2] was 34 % of control and 54 % of control and the T/C [3] was 50 % of control and 70 % of control. For the same compound, the T/C [4] was 54 % of control and 55 % of control, the T/C [5] was 35 % of control and 60 % of control and the T/C (endpoint: median tumor weight change, dose: 20.0 mg/kg/injection, schedule: Q01DX001 (ip), vehicle: saline + alcohol) was 48 % of control.
In the case of `COc1cc2cc(c1Cl)N(C)C(=O)CC(OC(=O)CC(C)C)C1(C)OC1C(C)C1CC(O)(NC(=O)O1)C(OC)/C=C/C=C(C)C2` (centres undefined), the T/C (endpoint: median tumor weight (est.), dose: 18.7 micrograms/kg/injection, schedule: Q07DX005 (ip), vehicle: saline + alcohol) is reported as 76 % of control, the T/C (endpoint: median tumor weight (est.), dose: 37.5 micrograms/kg/injection, schedule: Q07DX005 (ip), vehicle: saline + alcohol) is reported as 80 % of control and the T/C (endpoint: median tumor weight (est.), dose: 75.0 micrograms/kg/injection, schedule: Q07DX005 (ip), vehicle: saline + alcohol) is reported as 85 % of control.
With `CC(C)CCCCCCCCCCCCC(=O)NCC(=O)NC1C(O)C(O)C(Nc2ncnc3nc[nH]c23)OC1C(O)CO` (centres undefined) the T/C (endpoint: median tumor weight (est.), dose: 1.0 mg/kg/injection, schedule: Q07DX005 (ip), vehicle: Klucel (hydroxypropylcellulose) (HPC)) was 169 % of control and the T/C (endpoint: median tumor weight (est.), dose: 2.0 mg/kg/injection, schedule: Q07DX005 (ip), vehicle: Klucel (hydroxypropylcellulose) (HPC)) was 51 % of control and 76 % of control.
With `O=NN(CCCl)C(=O)NC1CCCCC1` the T/C (endpoint: mean tumor weight (est.), dose: 25.0 mg/kg/injection, schedule: Q07DX003 (ip), vehicle: saline + alcohol) was 88 % of control, the T/C (endpoint: mean tumor weight (est.), dose: 50.0 mg/kg/injection, schedule: Q07DX003 (ip), vehicle: saline + alcohol) was 28 % of control and the T/C (endpoint: mean tumor weight, dose: 6.25 mg/kg/injection, schedule: Q01DX009 (ip), vehicle: saline) was 78 % of control. For the same compound, the T/C (endpoint: mean tumor weight, dose: 12.5 mg/kg/injection, schedule: Q01DX009 (ip), vehicle: saline) was 75 % of control, the T/C (endpoint: mean tumor weight, dose: 12.5 mg/kg/injection, schedule: Q07DX006 (ip), vehicle: saline + alcohol) was 74 % of control and the T/C (endpoint: mean tumor weight, dose: 25.0 mg/kg/injection, schedule: Q01DX009 (ip), vehicle: saline) was 28 % of control. The T/C (endpoint: mean tumor weight, dose: 25.0 mg/kg/injection, schedule: Q07DX006 (ip), vehicle: saline + alcohol) was 44 % of control, the T/C (endpoint: mean tumor weight, dose: 25.0 mg/kg/injection, schedule: Q07DX006 (ip), vehicle: saline) was 61 % of control and the T/C (endpoint: mean tumor weight, dose: 50.0 mg/kg/injection, schedule: Q07DX006 (ip), vehicle: saline + alcohol) was 11 % of control. For the same compound, the T/C (endpoint: mean tumor weight, dose: 50.0 mg/kg/injection, schedule: Q07DX006 (ip), vehicle: saline) was 220 % of control, the T/C (endpoint: median tumor weight (est.), dose: 8.0 mg/kg/injection, schedule: Q07DX005 (ip), vehicle: Klucel (hydroxypropylcellulose) (HPC)) was 99 % of control and the T/C (endpoint: median tumor weight (est.), dose: 16.0 mg/kg/injection, schedule: Q07DX005 (ip), vehicle: Klucel (hydroxypropylcellulose) (HPC)) was 30 % of control. For the same compound, the T/C (endpoint: median tumor weight (est.), dose: 32.0 mg/kg/injection, schedule: Q07DX005 (ip), vehicle: Klucel (hydroxypropylcellulose) (HPC)) was 29 % of control, the T/C (endpoint: median tumor weight change, dose: 4.0 mg/kg/injection, schedule: Q01DX001 (ip), vehicle: Klucel (hydroxypropylcellulose) (HPC)) was 66 % of control and the T/C (endpoint: median tumor weight change, dose: 8.0 mg/kg/injection, schedule: Q01DX001 (ip), vehicle: Klucel (hydroxypropylcellulose) (HPC)) was 73 % of control. For the same compound, the T/C (endpoint: median tumor weight change, dose: 15.0 mg/kg/injection, schedule: Q01DX001 (ip), vehicle: Klucel (hydroxypropylcellulose) (HPC)) was 91 % of control, the T/C (endpoint: median tumor weight change, dose: 16.0 mg/kg/injection, schedule: Q01DX001 (ip), vehicle: Klucel (hydroxypropylcellulose) (HPC)) was 55 % of control and the T/C (endpoint: median tumor weight change, dose: 30.0 mg/kg/injection, schedule: Q01DX001 (ip), vehicle: Klucel (hydroxypropylcellulose) (HPC)) was 34 % of control. The T/C (endpoint: median tumor weight change, dose: 32.0 mg/kg/injection, schedule: Q01DX001 (ip), vehicle: Klucel (hydroxypropylcellulose) (HPC)) was 40 % of control, the T/C (endpoint: median tumor weight change, dose: 60.0 mg/kg/injection, schedule: Q01DX001 (ip), vehicle: Klucel (hydroxypropylcellulose) (HPC)) was -23 % of control and the T/C (endpoint: median tumor weight change, dose: 80.0 mg/kg/injection, schedule: Q01DX001 (ip), vehicle: Klucel (hydroxypropylcellulose) (HPC)) was 17 % of control.
In the case of `CC(=O)[C@]1(O)Cc2c(O)c3c(c(O)c2[C@@H](OC2CC(N)C(O)C(C)O2)C1)C(=O)c1c(O)cccc1C3=O` (some centres undefined), the T/C (endpoint: median tumor weight (est.), dose: 0.6 mg/kg/injection, schedule: Q07DX005 (ip), vehicle: water) is reported as 96 % of control.
In the case of `CCCCCCCCCCC(OC(C)=O)C1CCC(C2CCC(C(O)CCCCCCCCCCCCC3C=C(C)OC3=O)O2)O1` (centres undefined), the T/C (endpoint: median tumor weight change, dose: 1.25 mg/kg/injection, schedule: Q01DX001 (ip), vehicle: water) is reported as 111 % of control, the T/C (endpoint: median tumor weight change, dose: 10.0 mg/kg/injection, schedule: Q01DX001 (ip), vehicle: other) is reported as 76 % of control and the T/C (endpoint: median tumor weight change, dose: 10.0 mg/kg/injection, schedule: Q01DX001 (ip), vehicle: water) is reported as 164 % of control. The T/C (endpoint: median tumor weight change, dose: 20.0 mg/kg/injection, schedule: Q01DX001 (ip), vehicle: other) was 41 % of control, the T/C (endpoint: median tumor weight change, dose: 40.0 mg/kg/injection, schedule: Q01DX001 (ip), vehicle: other) was 38 % of control and the T/C (endpoint: median tumor weight change, dose: 80.0 mg/kg/injection, schedule: Q01DX001 (ip), vehicle: other) was 38 % of control.
In the case of `CCCCCCCC(=O)OCC(=O)[C@]1(O)Cc2c(O)c3c(c(O)c2[C@@H](OC2CC(N)C(O)C(C)O2)C1)C(=O)c1c(OC)cccc1C3=O` (some centres undefined), the T/C (endpoint: mean tumor weight, dose: 1.0 mg/kg/injection, schedule: Q07DX006 (ip), vehicle: saline) is reported as 62 % of control, the T/C (endpoint: mean tumor weight, dose: 2.0 mg/kg/injection, schedule: Q07DX006 (ip), vehicle: saline) is reported as 19 % of control and the T/C (endpoint: median tumor weight (est.), dose: 1.0 mg/kg/injection, schedule: Q07DX005 (ip), vehicle: saline) is reported as 64 % of control. The T/C (endpoint: median tumor weight (est.), dose: 2.0 mg/kg/injection, schedule: Q07DX005 (ip), vehicle: saline) was 64 % of control, the T/C (endpoint: median tumor weight (est.), dose: 4.0 mg/kg/injection, schedule: Q07DX005 (ip), vehicle: saline) was 66 % of control and the T/C (endpoint: median tumor weight (est.), dose: 8.0 mg/kg/injection, schedule: Q07DX005 (ip), vehicle: saline) was 11 % of control.
For `CCOC(=O)[C@]1(Br)CC[C@@]1(Br)C(=O)OCC`, the T/C (endpoint: median tumor weight (est.), dose: 12.5 mg/kg/injection, schedule: Q07DX005 (ip), vehicle: saline with Tween-80) was 117 % of control, the T/C (endpoint: median tumor weight (est.), dose: 25.0 mg/kg/injection, schedule: Q07DX005 (ip), vehicle: saline with Tween-80) was 102 % of control and the T/C (endpoint: median tumor weight (est.), dose: 50.0 mg/kg/injection, schedule: Q07DX005 (ip), vehicle: saline with Tween-80) was 95 % of control. For the same compound, the T/C (endpoint: median tumor weight (est.), dose: 100.0 mg/kg/injection, schedule: Q07DX005 (ip), vehicle: saline with Tween-80) was 112 % of control, the T/C (endpoint: median tumor weight (est.), dose: 200.0 mg/kg/injection, schedule: Q07DX005 (ip), vehicle: saline with Tween-80) was 95 % of control and the T/C (endpoint: median tumor weight (est.), dose: 400.0 mg/kg/injection, schedule: Q07DX005 (ip), vehicle: saline with Tween-80) was 105 % of control.
